According to patent US10189856B2 (Adverio Pharma GMBH, priority 2010, dated 2019):
“Also recorded” adds a separate entry of the source.

Experiments:
conscious mice = test: Haemodynamic effects in conscious mice with telemetric implants (Example D); assay type: in vivo; settings: result in words, dosages with antifibrotic properties
Experimental: The haemodynamic effects of i.e. example, the compound of formula 3, the compound of formula 4, the compound of formula 6 were analyzed in conscious mice. Telemetric implants (DSI®) were used. Signals were received with RMC1-DSI® receiver plates, compiled and analyzed with PONEMAH® physiology platform software.
The mice received either placebo (tylose), 0.3 mg/kg the compound of formula 27, 1 mg/kg the compound of formula 27, 3 mg/kg the compound of formula 27 (FIG. 1), 1.0 mg/kg the compound of formula 3, 3.0 mg/kg the compound of formula 3, 10.0 mg/kg the compound of formula 3 (FIG. 2A,2B), 1.0 mg/kg the compound of formula 4, 3.0 mg/kg the compound of formula 4, 10.0 mg/kg the compound of formula 4 (FIG. 3A/3B), 0.3 mg/kg the compound of formula 6, 1.0 mg/kg the compound of formula 6, 3.0 mg/kg, 10.0 mg/kg the compound of formula 6 (FIG. 4A/4B). The blood pressure and heart rate was monitored before and after application of placebo or the compounds.

[1] = test system: Bleomycin-induced skin fibrosis; test: Bleomycin-induced skin fibrosis, preventive dose-regimen (Example A); assay type: in vivo, mice; settings: for Collagen content / Myofibroblast count / Dermal thickness: Table 2; for Collagen content: bleomycin + vehicle 1.56; for Myofibroblast count: bleomycin + vehicle 3.86; for Dermal thickness: vs vehicle-treated control, bleomycin + vehicle 1.71; for dermal thickness, hydroxyproline content of the skin and the number of dermal myofibroblasts: result in words, bleomycin-induced SSc in mice, preventive dose-regimen
Experimental: Local skin fibrosis was induced in 6-week-old, pathogen-free, female DBA/2 mice (Charles River, Sulzfeld, Germany) by repeated (every other day) subcutaneous injections of bleomycin (0.5 mg/ml in saline) in a defined area of the upper back. Control mice were injected in the same manner with saline only and served as reference. For all groups the injection volume was 100 μl. Concomitant to bleomycin treatment, the mice were treated orally with test drug or vehicle. Mice were treated a) with vehicle b) with 1 mg/kg compound of formula 27, and c) with 3 mg/kg compound of formula 27, twice a day via gavage for 21 days. After this 3 weeks treatment period, the animals were sacrificed and skin samples were obtained for analysis.
The injected skin areas were fixed in 4% formalin and embedded in paraffin. Histological sections were stained with hematoxylin and eosin for the determination of dermal thickness. The dermal thickness was determined by measuring the largest distance between the epidermal-dermal junction and the dermal-subcutaneous fat junction. The measurements were performed by an examiner blinded to the treatment of the mice.
To analyze the collagen content in skin samples, hydroxyproline assay was performed. After digestion of punch biopsies (Ø 3 mm) in 6M HCl for three hours at 120° C., chloramine T (0.06 M) was added and samples were mixed and incubated for 20 min at room temperature. 3.15 M perchloric acid and 20% p-dimethylaminobenzaldehyde were added and samples were incubated for additional 20 min at 60° C. The absorbance was determined at 557 nm.
The expression of α-smooth muscle actin (αSMA) was analyzed in paraffin embedded sections. After deparaffinization, samples were incubated with 3% bovine serum albumin followed by incubation with 3% H2O2. αSMA positive cells in mouse sections were detected by incubation with monoclonal anti-αSMA antibodies (clone 1A4, Sigma-Aldrich, Steinheim, Germany). Irrelevant isotype antibodies in the same concentration were used for control (Santa Cruz Biotechnology, Santa Cruz, Calif., USA). Antibodies labeled with horseradish peroxidase (Dako, Hamburg, Germany) were used as secondary antibodies. The expression of the NICD and αSMA was visualized with DAB peroxidase substrate solution (Sigma-Aldrich). The number of myofibroblasts was counted from 4 different sections of lesional skin for each mouse by an examiner blinded to the treatment of the mice.

[2] = test system: Bleomycin-induced skin fibrosis; test: as above; assay type: in vivo, mice; settings: Table 2, 0.3 mg/kg
[3] = test system: established Bleomycin-induced skin fibrosis; test: Established bleomycin-induced skin fibrosis, therapeutic dose-regimen (Example B); assay type: in vivo; settings: result in words; bleomycin-induced SSc in mice, therapeutic dose-regimen after established fibrosis
Experimental: Local skin fibrosis was induced in 6-week-old, pathogen-free, female DBA/2 mice (Charles River, Sulzfeld, Germany) by repeated (every other day) subcutaneous injections of bleomycin (0.5 mg/ml in saline) in a defined area of the upper back. Control mice were injected in the same manner with saline only. For all groups the injection volume was 100 μl. The study comprises 4 arms with • a) mice receiving saline injection for 6 weeks (serving as reference) • b) mice receiving Bleomycin injection for 6 weeks • c) mice receiving Bleomycin injection for 6 weeks and additional treatment with the compound of formula 27 (3 mg/kg) twice a day via gavage for the last 3 weeks • d) mice receiving the first 3 weeks bleomycin injections and the second 3 weeks saline injection.
After 6 weeks the animals were sacrificed and skin samples were obtained for analysis.
(§1) Histological analysis, hydroxyproline assay and immunohistochemistry for α-smooth muscle actin were performed as described in the Example 1 section.

Tsk-1 mice = test: Tight skin (Tsk-1) mouse model of systemic sclerosis (Example C); assay type: in vivo; settings: result in words; TSK mice with established fibrosis before start of treatment
Experimental: In addition to the mouse model of bleomycin-induced dermal fibrosis, the tight-skin (Tsk-1) mouse model of systemic sclerosis was used to evaluate the anti-fibrotic potential of test drugs. Due to a dominant mutation in fibrillin-1, the phenotype of Tsk-1 is characterized by an increased hypodermal thickness. Genotyping of Tsk-1 mice was performed by PCR with the following primers: mutated fibrillin-1/Tsk-1 forward primer: 5′-[…]-3′, reverse primer: 5′-[…]-3′. Tsk-1 mice were treated daily with test drug or vehicle, respectively, by oral gavage. In addition, a group of corresponding wild type(pa/pa) mice was treated with vehicle. The treatment was started at an age of five weeks. After five weeks of treatment, mice were sacrificed by cervical dislocation and skin samples were obtained for analysis.
as §1

human dermal fibroblasts = test: TGFbeta-induced collagen gene expression and hydroxyproline deposition in human dermal fibroblasts (Example E); assay type: cell-based; settings: result in words; human dermal fibroblasts in vitro
Experimental: The effects of the compound of formula 27 and vardenafil as stand alone and in combination were analyzed in vitro in human dermal fibroblasts in vitro.

Structure (SMILES)	haemodynamic profile (blood pressure and heart rate) (conscious mice)	Collagen content ([1]; 1 mg/kg) [x-fold change]	Myofibroblast count ([1]; 1 mg/kg) [x-fold change]	Dermal thickness ([1]; 1 mg/kg) [x-fold change]	dermal thickness, hydroxyproline content of the skin and the number of dermal myofibroblasts [1]	further results
COC(=O)N(C)c1c(N)nc(-c2nn(Cc3ccccc3F)c3ncc(F)cc23)nc1N	did not or only moderately, change					
COC(=O)N(C)c1c(N)nc(-c2nn(Cc3ccccc3F)c3ncccc23)nc1N [compound of formula 3, Methyl-4,6-diamino-2-[1-(2-fluorobenzyl)-1H-pyrazolo[3,4-b]pyridine-3-yl]-5-pyrimidinyl-(methyl)carbamate]	did not or only moderately, change	1.38	2.55	1.38	significantly reduced; also recorded: dose dependent and significant effects	
COC(=O)Nc1c(N)nc(-c2nn(Cc3ccccc3F)c3ncccc23)nc1N [compound of formula 4, Methyl-4,6-diamino-2-[1-(2-fluorobenzyl)-1H-pyrazolo[3,4-b]pyridine-3-yl]-5-pyrimidinyl-carbamate]	did not or only moderately, change					
COC(=O)Nc1c(N)nc(-c2nn(Cc3ccccc3F)c3ncc(F)cc23)nc1N [compound of formula 6, Methyl-{4,6-diamino-2-[5-fluoro-1-(2-fluorobenzyl)-1H-pyrazolo[3,4-b]pyridine-3-yl]pyrimidine-5-yl}carbamate]		1.28	2.05	1.24	significantly reduced; also recorded: dose dependent and significant effects	Collagen content ([1]; 3 mg/kg): 1.20 x-fold change; Myofibroblast count ([1]; 3 mg/kg): 1.49 x-fold change; Dermal thickness ([1]; 3 mg/kg): 1.19 x-fold change; Collagen content ([2]; bleomycin + vehicle 1.56): 1.41 x-fold change; Myofibroblast count ([2]; bleomycin + vehicle 3.86): 3.13 x-fold change; Dermal thickness ([2]; vs vehicle-treated control, bleomycin + vehicle 1.71): 1.41 x-fold change
Nc1nc(-c2nn(Cc3ccccc3F)c3ncccc23)ncc1C1CC1 [compound of formula 27, 3-(4-Amino-5-cyclopropylpyrimidin-2-yl)-1-(2-fluorobenzyl)-1H-pyrazolo[3,4-b]pyridine]	did not or only moderately, change				significantly reduced	dermal thickness, hydroxyproline content of the skin and the number of dermal myofibroblasts [3]: significantly reduced; dermal thickness, hydroxyproline content of the skin and the number of dermal myofibroblasts (Tsk-1 mice): significantly reduced; TGFbeta-induced Collagen gene expression (human dermal fibroblasts): significantly blocked; TGFbeta-induced Hydroxyproline (HP) deposition (human dermal fibroblasts): significantly blocked
